Data: BindingDB's records for doi:10.1073/pnas.90.21.10365 (Merck Research Laboratories, 1993)

Biological target: T1, Adenosine receptor A3 (Homo sapiens, UniProt P0DMS8)
T1 sequence (P0DMS8 whole entry): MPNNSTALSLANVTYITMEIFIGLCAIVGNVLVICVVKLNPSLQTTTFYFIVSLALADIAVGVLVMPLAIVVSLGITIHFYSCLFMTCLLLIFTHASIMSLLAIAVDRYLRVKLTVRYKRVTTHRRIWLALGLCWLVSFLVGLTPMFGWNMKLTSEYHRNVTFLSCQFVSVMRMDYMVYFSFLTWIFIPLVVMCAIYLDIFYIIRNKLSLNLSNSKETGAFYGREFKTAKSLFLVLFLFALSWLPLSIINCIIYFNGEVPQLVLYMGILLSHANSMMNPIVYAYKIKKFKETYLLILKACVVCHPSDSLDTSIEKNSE

Ki: 10 nM
Compound: Nc1ccc(CNc2ncnc3c2ncn3[C@@H]2O[C@H](CO)[C@@H](O)[C@H]2O)cc1I [IABA]
